Data from patent US20260355199A1, “COMPOSITIONS AND METHODS FOR TREATING OR PREVENTING NONALCOHOLIC STEATOHEPATITIS (NASH), ANOREXIA, DEPRESSION, ENDOMETRIOSIS, AND OTHER DISEASES OR DISORDERS” (priority 2022, published 2026).
“Also recorded” adds a separate entry of the source.

Tests used:
Tet3 mRNA [1] = assay: Tet3/Tet2 mRNA in RAW 264.7 cells; format: cell-based, mouse; conditions: RAW 264.7, 10 μM, 24 h
Method: For siRNA transfection in a 24-well plate scale of Raw 264.7 cells, 10 pmol of NT siRNA (AM4636, Ambion) or Tet3 siRNA (4390815/s101483, Ambion) was mixed with 100 μL of OPTI-MEM (Gibco, 31985-070) by gentle pipetting. In parallel, 3 μL of Lipofectamine RNAiMAX (Invitrogen, 13778-150) was mixed with 100 μL of OPTI-MEM by gentle pipetting. Following 5 min of incubation at RT, the two were combined and the resulting 200 μL of transfection solution was added to each well of cells. After 24 h of incubation at […] in a 5% humidified CO2 tissue culture incubator, 300 μL of growth media was added and incubation was continued until cell harvesting.
Bobcat339 Treatment of Cultured Cells Bobcat339 powder (Sigma-Aldrich, SML2611) was freshly dissolved in DMSO at a concentration of 5 mM and filtered through a 0.22 micron. Cells grown at a density of 80-90% were incubated in growth media with vehicle (DMSO) or Bobcat339 at a final concentration of 10 μM for 24 h, followed by RNA and protein extraction.
Total RNAs were extracted from cells using PureLink RNA Mini Kit. 0.5-1 μg total RNA was reverse transcribed to cDNA in a reaction volume of 20 μL using PrimeScript RT Reagent Kit. Real-time quantitative PCR was performed in a 15 μL reaction volume containing 0.5-1 μL of cDNA using SsoAdvanced Universal SYBR Green Supermix in a Bio-Rad iCycler. Gene expression levels were normalized against RPLP0.

[2] = Liver toxicity (plasma ALT, AST, bilirubin) in endometriosis mice; format: in vivo, mouse; conditions: 6 weeks; for liver toxicity (plasma ALT, AST, bilirubin): 2.5 mg/kg i.p. once a week
Method: Blood samples were collected in EDTA tubes (Microtainer with K2EDTA, BD, 365974) by cardiac puncture of terminally anesthetized animals. The tubes were centrifuged at 2,000×g at 4 °C for 20 min, and plasma was collected and stored at −80 °C until use. Blood chemistry were measured according to the manufacturer's instructions. Kits used to measure alanine transaminase (EALT-100) and aspartate transaminase (EASTR-100) were purchased from Bioassay Systems. The bilirubin assay kit (MAK126) was purchased from Sigma Aldrich.

TET2 [3] = assay: TET2 protein stability (cycloheximide) in MDMs; format: cell-based, human; conditions: 10 μM, with cycloheximide
Method: For TET protein stability assay of MDMs, cells in 24-well plates were incubated with vehicle or Bobcat339 at a final concentration of 10 μM for 3 h, followed by addition of cycloheximide (CHX, Cell Signaling, 2112) at a final concentration of 50 μg/mL. Proteins were harvested at 0, 2, 4, and 6 hours after addition of CHX.

Tet3 mRNA [4] = assay: Tet3 mRNA in the ARC of mice; format: in vivo, mouse; conditions: 2.5 mg/kg i.p., two days
Method: (§1) To test whether Bobcat339 affects TET3 protein expression in AgRP neurons, Agrp-IRES-Cre::LSL-Cas9-GFP mice with GFP expression specifically in AgRP neurons were intraperitoneally injected with vehicle or Bobcat339 at 2.5 mg/kg, followed by isolation of ARCs under fed conditions (9:00-11:00) two days later. This dose was chosen based on the dose response studies. TET2 expression was widespread but was negligible in AgRP neurons.
(§2) Bobcat339 powder (Sigma-Aldrich, SML2611) was freshly dissolved in DMSO (vehicle) at a concentration of 50 mg/mL and filtered through a 0.22 micron. It was further diluted with 1×PBS to a final concentration of 0.5 mg/mL before injections. Mice were injected intraperitoneally with Bobcat339 at 1 mg/kg, 2.5 mg/kg, or 4 mg/kg.
Total RNAs were extracted from neuronal cells or homogenized hypothalamic arcuate nucleus tissue samples using PureLink RNA Mini Kit (Ambion, 12183025). cDNA was synthesized using PrimeScript RT Reagent Kit in a 20 μl reaction containing 0.5-1 μg of total RNA. Real-time quantitative PCR was performed in a 15 μl reaction containing 0.5-1 μl of cDNA using SsoAdvanced Universal SYBR Green Supermix in a Bio-Rad iCycler. Specificity was verified by melting curve analysis. The Ct values of each sample were used in the post-PCR data analysis. Gene expression levels were normalized against RPLP0.

TET2 [5] = assay: TET2 expression in the ARC of mice; format: in vivo, mouse; conditions: 2.5 mg/kg i.p., two days
Method: as §1, §2
The immunofluorescence for brain slices was conducted using previous methods (18). In brief, postfixed sections were cut into 40-μm-thick sections, followed by 5 times washing. […] The sections were coverslipped and scoped using a Keyence BZ-X700 fluorescence microscope. The fluorescence signals from GFP in AgRP neurons were detected without immunostaining.

SMILES: Nc1nc(=O)n(-c2cccc(-c3ccccc3)c2)cc1Cl [Bobcat339, 4-Amino-1-[1,1′-biphenyl]-3-yl-5-chloro-2(1H)-pyrimidinone]
- Tet3 mRNA (Tet3 mRNA [1]): without altering its mRNA abundance; also recorded: no significant difference in expression between the groups
- liver toxicity (plasma ALT, AST, bilirubin) [2]: no evidence of liver toxicity; also recorded: no differences between the groups
- liver toxicity (plasma ALT, AST, bilirubin) ([2]; listed as Bobcat): no differences between the groups
- liver toxicity ([2]; 3 mg/kg i.p. once a week): no evidence of liver toxicity
- TET2 protein stability (TET2 [3]): destabilized both proteins
- Tet3 mRNA in the ARC (Tet3 mRNA [4]): did not alter the mRNA abundance of Tet3; also recorded: no significant change
- TET2 expression (TET2 [5]): did not significantly affect TET2 expression
